Source: US20170143608A1, “SKIN COLOR-IMPROVING AGENT AND COMPOSITION FOR IMPROVING SKIN COLOR” (priority 2014, published 2017)

Tests used:
[1] = test system: UDP-glucuronosyltransferase gene (UGT1A1 gene); assay: Expression promoting effect on UDP-glucuronosyltransferase gene in NB1-RGB cells (quantitative real-time PCR); format: cell-based, human; details: for Relative gene expression level UGT1A1: final concentration 0.2 μm, 72 hours, standardized to GAPDH, 50% ethanol control = 1.00; for expression promoting effect on UGT1A1 gene compared to dl-α-tocopherol acetate group (in words): compared to the group in which dl-α-tocopherol acetate was added
Method: (§1) Specifically, the NB1-RGB cells were prepared at a seeding density of 10,000 cells/cm^2, and were cultured for 24 hours in a DMEM medium containing 10% fetal bovine serum. […] In addition, one obtained by adding only 50% ethanol to the medium of cells was used as the control.
(§2) Next, all RNA was extracted from each cell, cDNA was synthesized, quantitative real-time PCR was performed using this cDNA as a template, and the expression levels of the HO-1 gene and UGT1A1 gene were quantified.

[2] = test system: heme oxygenase gene (HO-1 gene); assay: Expression promoting effect on heme oxygenase gene in NB1-RGB cells (quantitative real-time PCR); details: for Relative gene expression level HO-1: final concentration 0.2 μm, 72 hours, standardized to GAPDH, 50% ethanol control = 1.00; for expression promoting effect on HO-1 gene compared to dl-α-tocopherol acetate group (in words): compared to the group in which dl-α-tocopherol acetate was added
Method: as §1, §2

| Compound | Relative gene expression level UGT1A1 [1] | Relative gene expression level HO-1 [2] | expression promoting effect on UGT1A1 gene compared to the control (in words) [1] | expression promoting effect on UGT1A1 gene compared to dl-α-tocopherol acetate group (in words) [1] | expression promoting effect on HO-1 gene compared to the control (in words) [2] | expression promoting effect on HO-1 gene compared to dl-α-tocopherol acetate group (in words) [2] |
| --- | --- | --- | --- | --- | --- | --- |
| CC(=O)Oc1c(C)c(C)c2c(c1C)CCC(C)(CCCC(C)CCCC(C)CCCC(C)C)O2 (racemic) [dl-α-tocopherol acetate, reference compound] | 34.84 | 0.97 | – | – | – | – |
| Cc1c(C)c2c(c(C)c1OP(=O)([O-])[O-])CCC(C)(CCCC(C)CCCC(C)CCCC(C)C)O2.[Na+].[Na+] (stereo not drawn) [sodium α-tocopheryl phosphate] | 59.11 | 1.40 | expression promoting effect | higher expression promoting effect | expression promoting effect | higher expression promoting effect |
| Cc1c(OP(=O)([O-])[O-])cc2c(c1C)O[C@](C)(CCC[C@H](C)CCC[C@H](C)CCCC(C)C)CC2.[Na+].[Na+] [sodium γ-tocopheryl phosphate] | 42.98 | 1.21 | expression promoting effect | higher expression promoting effect | expression promoting effect | higher expression promoting effect |
